# Measurements from patent publication US11302422B2, “Methods and systems for identifying a drug mechanism of action using network dysregulation” (THE TRUSTEES OF COLUMBIA UNIVERSITY IN THE CITY OF NEW YORK, priority 2014, dated 2022).
# Entries after “also recorded” stand apart in the source; their conditions may differ.
# Assays:
# OCI-LY3 cells = assay: Mitomycin C dose-response with JAK2 inhibitor TG101348 (CellTiter-Glo); type: cell-based, human; settings: mitomycin C with TG101348 at 0.2, 0.4, 0.6 uM, 48 hrs
# Procedure: The JAK2-selective inhibitor TG101348 and Mitomycin C was purchased from Selleckchem and Tocris Bioscience respectively and were and dissolved in DMSO. OCI-LY3 cells were treated with the indicated compounds in 96-well plates and there growth was determined using the CellTiter-Glo Luminescent Cell Viability Assay (Promega Corp). Typically, 30,000 OCI-Ly3 cells per well in 200 μL of growth medium were grown for 48 hrs in the presence or absence (DMSO alone) of the desired compounds, and then assayed with CellTiter Glo according to manufacturer's instructions.
# U-2932 cells [1] = assay: Lipid ROS by C11-BODIPY staining and flow cytometry; type: cell-based; settings: BODIPY-C11, versus DMSO
# Procedure: U-2932 cells (2×10^5) were seeded in 6-well plates and incubated at 37° C. for 16 hrs. Cells were treated with test compounds for the indicated time, then harvested, pelleted and washed once with PBS. For lipid ROS detections, cells were re-suspended with Hanks Balanced Salt Solution (HBSS, Life Technologies) containing C11-BODIPY (581/591) (2 μM) (Life Technologies) and incubated for 10 minutes at 37° C. Cells were then pelleted, re-suspended in 500 μL HBSS, strained through […] cell strainer (BD Falcon), and analyzed using BD Accuri C6 flow cytometer (BD Biosciences). C11-BODIPY signal was measured using FL1 channel. Experiments were done in biological triplicates, and a representative result was shown.
# GPX4 = biological target: T1, GPX4 (Homo sapiens, UniProt P36969); assay: LC-MS based GPX4 assay (PC-OOH reduction) in lysates of treated cells; type: cell-based; settings: lysates of altretamine treated U-2932 cells versus untreated lysate
# T1 construct: endogenous in cells; host or cells: U-2932 cells (cleared whole-cell lysate)
# T1 sequence (P36969 1-197): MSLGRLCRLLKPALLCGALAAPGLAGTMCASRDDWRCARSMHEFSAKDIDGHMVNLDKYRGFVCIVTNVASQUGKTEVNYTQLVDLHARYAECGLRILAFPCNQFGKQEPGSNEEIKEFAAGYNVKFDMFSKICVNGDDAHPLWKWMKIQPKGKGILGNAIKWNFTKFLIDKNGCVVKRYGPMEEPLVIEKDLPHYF
# Procedure: GPX4 enzymatic activity assay was performed as follows. Briefly, 1×10^6 cells were re-suspended in the cell lysis buffer. Sonication was used to make cell lysates followed by centrifugation at 14,000 rpm for 10 minutes. Protein concentration of the cleared cell lysates was determined using a Bradford protein assay (Bio-Rad). Two hundred micrograms of cellular proteins was mixed with phosphatidyl choline hydroperoxide (PC—OOH), the GPX4 specific substrate, and reduced glutathione, a GPX4 cofactor. The mixture was incubated at 37° C. for 30 minutes followed by lipid extraction using a chloroform:methanol (2:1) solution. The lipid extract was evaporated using a rotary evaporator, and re-dissolved in 100% ethanol before injecting into LC-MS instrument for PC-OOH quantitation.
# U-2932 cells [2] = assay: Glutathione (GSH) level in treated cells; type: cell-based; settings: 1 mM, 24 hrs, versus DMSO
# Procedure: U-2932 cells were seeded in 10 cm dish (2×10^6/dish) and grown at 37° C. for 16 hrs. Cells were treated with vehicle (0.4% DMSO), 1 mM sulfasalazine (24 hr IC50) or 1 mM altretamine (double the 24 hr IC50), and incubated for 24 hrs. Cells were then harvested, pelleted, washed once with 400 μl ice-cold PBS containing 1 mM EDTA and sonicated. After the debris was pelleted and removed, both oxidized and reduced glutathione in 120 μL of sample was quantified in technical triplicate using QuantiChrome glutathione assay kit (BioAssay Sytems). The glutathione quantity was normalized to protein concentration measured with Bradford assay (Bio-Rad).
# U-2932 cells [3] = assay: Cell viability, 24 hr IC50; type: cell-based; settings: Homo sapiens, U2932
# Procedure: Compounds were selected based on their activity in a primary screen of FDA-approved, late-stage experimental, and tool compounds. OCI-LY3, OCI-LY7 and U-2932 cells were seeded in white, tissue culture-treated 96-well plates at a density of 5×10^4 cells per well in 100 μL total volume using the Janus automated liquid handling system (Perkin Elmer Inc.). After 12 hrs of incubation at 37° C. the plates were allowed to cool to room temperature prior to compound addition via the Janus. Compounds were transferred as 1 μL of DMSO stock solutions into the assay plates (plate based triplication), which were subsequently placed on an orbital shaker for 5 minutes and then placed back in the incubator. […] Plates were shaken 5 minutes on an orbital shaker before data acquisition in an Envision (PerkinElmer Inc.) (0.5 second read time, enhanced luminescence). IC20 values were determined using IDBS Activity Base utilizing a four parameter fit model.
# U-2932 cells were seeded in 10 cm dish (2×10^6/dish) and grown at 37° C. for 16 hrs. […] After the debris was pelleted and removed, both oxidized and reduced glutathione in 120 μL of sample was quantified in technical triplicate using QuantiChrome glutathione assay kit (BioAssay Sytems). The glutathione quantity was normalized to protein concentration measured with Bradford assay (Bio-Rad).
# U-2-OS cells [4] = assay: Microtubule network visualised with anti-tubulin antibody; type: cell-based; settings: vincristine 4 nM for 24 hrs, compared to DMSO / non-specific siRNA
# Procedure: Cells were grown on coverslips to ˜50% confluency and treated with compounds for 24 hrs. Cells were fixed with 3.7% formaldehyde solution in PBS for 15-30 minutes followed by washing with PBS 5 times. Cell membrane was permeabilized with 0.2% Triton-X in PBS for 10 minutes and rinsed once with TBS (10 mM Tris [pH 7.5], 150 mM NaCl). The permeabilized sample was blocked with 10% goat serum in TTBS (0.1% Tween-20 in TBS) for 30-60 minutes and washed once with TTBS. The microtubule network was probed with anti-tubulin antibody (Santa Cruz cat #sc-32293) in 1% goat serum in TTBS for 30-60 minutes at room temperature followed by washing in TTBS for 10 minutes. Alexa Fluor anti-mouse antibody (Invitrogen, cat #A-11005) was used as the secondary antibody to visualize the microtubule network using the 60× lens of a confocal microscope.
# U-2-OS cells [5] = assay: Vincristine dose-response (alamar Blue growth inhibition) after siRNA-mediated gene silencing; type: cell-based
# Procedure: Small interfering RNA (siRNA) targeting each specified gene and siControl SMARTpools were obtained from Dharmacon Technologies (see Table 3). Reverse transfection was performed by preparing a solution of 1 mL of Opti-MEM (Invitrogen), […], of Lipofectamine-RNAiMAX reagent (Invitrogen) and 1.25 μL of 10 μM RNAi solution (final working concentration is […]), and incubating the mixture (1 mL/well) in a 6-well dish for 20 minutes at 37° C. U-2-OS cells were detached from culture flask, and re-suspended in 2× serum-containing media at a density of 4×10^5 cells/mL. One mL of cell suspension was transferred to each well containing the transfection mixture, and the 6-well plate was returned to culture incubator. After 48 hrs, cells were detached and reverse transfected again using the same procedures. After 48 hrs, cells were trypsinized and reseeded into 384-well format to determine sensitivity against vincristine. […] Plates were incubated further for 16 hrs to allow reduction of alamar Blue, which results in the generation of red fluorescence. The fluorescence intensity was determined using a Victor 3 plate reader (Perkin Elmer, Inc.), and used to calculated percent growth inhibition.
smiles,measurement,setting,value
Cc1cnc(Nc2ccc(OCCN3CCCC3)cc2)nc1Nc1cccc(S(=O)(=O)NC(C)(C)C)c1 [TG101348],effect of JAK2 inhibition on mitomycin C activity (percent cell inhibition),OCI-LY3 cells,"significant, dose-dependent antagonism"
CN(C)c1nc(N(C)C)nc(N(C)C)n1 [altretamine],lipid-ROS levels,U-2932 cells [1],significantly increases the levels of lipid-ROS; also recorded: induce lipid-ROS accumulation
same,GPX4 activity (residual PC-OOH signal),GPX4,decreases the activity of GPX4; also recorded: displayed a significant [PC—OOH+H^+] signal
same,GSH levels,U-2932 cells [2],indistinguishable from the control; also recorded: did not deplete GSH levels
CO[C@@]12[C@H](COC(N)=O)C3=C(C(=O)C(C)=C(N)C3=O)N1C[C@@H]1N[C@@H]12 [mitomycin C],effect of JAK2 inhibition on mitomycin C activity (percent cell inhibition),OCI-LY3 cells,"reduction in the sensitivity of the cells; also recorded: significant, dose-dependent antagonism"
O=C(O)c1cc(/N=N/c2ccc(S(=O)(=O)Nc3ccccn3)cc2)ccc1O [sulfasalazine],IC50,U-2932 cells [3],1 mM
same,lipid-ROS levels,U-2932 cells [1],significantly increases the levels of lipid-ROS; also recorded: induce lipid-ROS accumulation
same,GSH levels,U-2932 cells [2],reduces the levels of active GSH compared to control
same,GSH levels,U-2932 cells [2]; listed as Sulfasalazine,depletion of GSH levels
CC[C@]1(O)C[C@H]2CN(CCc3c([nH]c4ccccc34)[C@@](C(=O)OC)(c3cc4c(cc3OC)N(C=O)[C@H]3[C@@](O)(C(=O)OC)[C@H](OC(C)=O)[C@]5(CC)C=CCN6CC[C@]43[C@@H]65)C2)C1 [vincristine],effect on microtubule network,U-2-OS cells [4],significantly altered microtubule network
same,change of vincristine sensitivity after CCNB1 silencing,"U-2-OS cells [5]; siRNA targeting CCNB1, 48 hrs vincristine",reduces the cell sensitivity; also recorded: had the opposite effect
same,change of vincristine sensitivity after RPS3A silencing,"U-2-OS cells [5]; siRNA targeting RPS3A, 48 hrs vincristine",reduces the cell sensitivity; also recorded: had the opposite effect
same,change of vincristine sensitivity after VHL silencing,"U-2-OS cells [5]; siRNA targeting VHL, 48 hrs vincristine",increases the sensitivity two-folds; also recorded: more than two-fold
